Patent US11660349B2, “Non-linear multiblock copolymer-drug conjugates for the delivery of active agents” (priority 2012, dated 2023)
Entries after “also recorded” stand apart in the source; their conditions may differ.

Key:
[1] = system: mice with laser-induced choroidal NV; assay: Laser-induced choroidal NV (CNV) mouse model; assay type: in vivo, mouse (C57BL/6); settings: 14 days, vs vehicle-injected fellow eyes
Protocol: Pathogen-free C57BL/6 mice (Charles River, Wilmington, Mass.) were treated in accordance with the Association for Research in Vision and Ophthalmology Statement for the Use of Animals in Ophthalmic and Vision Research and the guidelines of the Johns Hopkins University Animal Care and Use Committee.
Choroidal NV was induced by laser photocoagulation-induced rupture of Bruch's membrane as previously described (Tobe, T. et al., Am. J. Pathol. 135(5): 1641-1646(1998)). […] Laser photocoagulation (75 μm spot size, 0.1 sec duration, 120 mW) was performed in the 9, 12, and 3 o'clock positions of the posterior pole of each eye with the slit lamp delivery system of an OcuLight GL diode laser (Iridex, Mountain View, Calif.) and a handheld cover slip as a contact lens to view the retina. Production of a bubble at the time of laser, which indicates rupture of Bruch's membrane, is an important factor in obtaining CNV; therefore, only burns in which a bubble was produced were included in the study.
Immediately after laser-induced rupture of Bruch's membrane, mice were randomized to various treatment groups for intraocular injections. Intravitreal injections were done under a dissecting microscope with a Harvard Pump Microinjection System and pulled glass micropipettes.
At 1, 4, 7, and 14 days after injection, fundus photographs were taken with a Micron III® camera (Phoenix Research Laboratories Inc., Pleasanton, Calif.). After 14 days, the mice were perfused with 1 ml of PBS containing 25 mg/ml of fluorescein-labeled dextran (2×10^6 Daltons average molecular weight; Sigma-Aldrich, St. Louis, Mo.) and choroidal flat mounts were examined by fluorescence microscopy. Images were captured with a Nikon Digital Still Camera DXM1200 (Nikon Instruments Inc., New York, N.Y.). Image analysis software (Image-Pro® Plus; Media Cybernetics, Silver Spring, Md.) was used to measure the total area of CNV at each rupture site with the investigator masked with respect to treatment group.

Adult C57BL/6 mice [2] = assay: Electroretinograms (ERGs), retinal function after intraocular injection
Protocol: For scotopic recordings, mice were dark adapted overnight, and for photopic recordings, mice were adapted for 10 min to background white light at an intensity of 30 cd/m^2. The mice were anesthetized with an intraperitoneal injection of ketamine hydrochloride (100 mg/kg body weight) and xylazine (5 mg/kg body weight). Pupils were dilated with Midrin P containing of 0.5% tropicamide and 0.5% phenylephrine, hydrochloride (Santen Pharmaceutical Co., Osaka, Japan). The mice were placed on a pad heated to 39° C. and platinum loop electrodes were placed on each cornea after application of Gonioscopic prism solution (Alcon Labs, Fort Worth, Tex.). A reference electrode was placed subcutaneously in the anterior scalp between the eyes and a ground electrode was inserted into the tail. The head of the mouse was held in a standardized position in a ganzfeld bowl illuminator that ensured equal illumination of the eyes. Recordings for both eyes were made simultaneously with electrical impedance balanced. Scotopic ERGs were recorded at 11 intensity levels of white light ranging from −3.00 to 1.40 log cd-s/m2. Six measurements were averaged for each flash intensity. Photopic ERGs were recorded at three intensity levels of white light ranging from 0.60 to 1.40 log cd-s/m2 with a 30 cd/m2 background. Five measurements were averaged for each flash intensity.

[3] = system: C57BL/6 mice with oxygen-induced ischemic retinopathy; assay: Oxygen-induced ischemic retinopathy, area of retinal NV; assay type: in vivo, mouse (C57BL/6); settings: five days after administration (P17), vs vehicle
Protocol: At P17, the area of retinal NV on the surface of the retina was measured. […] Retinas were dissected, washed, and incubated with goat-anti rat polyclonal antibody conjugated with Alexa 488 (Invitrogen, Carlsbad, Calif.) at 1:500 dilution at room temperature for 45 minutes and flat mounted. An observer masked with respect to treatment group measured the area of NV per retina by image analysis.

Adult C57BL/6 mice [4] = assay: Outer nuclear layer (ONL) thickness; assay type: in vivo, mouse (C57BL/6); settings: 0.25 μg intraocular; one week after injection
Protocol: ONL thickness was measured. […] Mice were euthanized, a mark was placed at 12:00 at the corneal limbus, and eyes were removed and embedded in optimal cutting temperature compound. Ten micrometer frozen sections were cut parallel to the 12:00 or 9:00 meridian through the optic nerve and fixed in 4% paraformaldehyde. The sections were stained with hematoxylin and eosin, examined with an Axioskop microscope (Zeiss, Thornwood, N.Y.), and images were digitized using a three charge-coupled device (CCD) color video camera (IK-TU40A; Toshiba, Tokyo, Japan) and a frame grabber. Image-Pro Plus software (Media Cybernetics, Silver Spring, Md.) was used to outline the ONL.

[5] = system: HIF-1 transcriptional activity and ocular NV; settings: intraocular injections of 0.01-0.25 μg; cited from earlier work
[6] = 0.1 μg intraocular after rupture of Bruch's membrane
[7] = 1.0 μg intraocular after rupture of Bruch's membrane
[8] = 10 μg intraocular after rupture of Bruch's membrane
[9] = 1 μg intraocular, fourteen days after injection

SMILES | area of CNV [1, 6] | area of CNV [1, 7] | area of CNV [1, 8] | mean scotopic and photopic b-wave amplitudes (Adult C57BL/6 mice [2]; [9]) | area of RNV ([3]; 0.01 μg intraocular at P12) | area of RNV ([3]; 0.1 μg intraocular at P12) | area of RNV ([3]; 1.0 μg intraocular at P12) | mean scotopic and photopic b-wave amplitudes (Adult C57BL/6 mice [2]; 0.05 μg intraocular) | ERG amplitudes (scotopic a-wave, scotopic b-wave, photopic b-wave) (Adult C57BL/6 mice [2]; 0.25 μg intraocular, one week after injection) | outer nuclear layer thickness (Adult C57BL/6 mice [4]) | HIF-1 transcriptional activity and ocular NV [5]
COc1cccc2c1C(=O)c1c(O)c3c(c(O)c1C2=O)C[C@@](O)(C(C)=O)C[C@@H]3O[C@H]1C[C@H](N)[C@H](O)[C@H](C)O1 [DNR, daunorubicin] | had no significant effect; also recorded: did not show a statistically significant reduction in the area of CNV | had no significant effect; also recorded: did not show a statistically significant reduction in the area of CNV | suppressed choroidal NV; also recorded: statistically significant reduction in the area of CNV | significant reduction in mean scotopic and photopic b-wave amplitudes | had no significant effect; also recorded: did not show a statistically significant reduction in the area of RNV | caused a small reduction; also recorded: statistically significant reduction in the area of RNV | markedly reduced the area of retinal NV; also recorded: statistically significant reduction in the area of RNV |  |  |  | 
COc1cccc2c1C(=O)c1c(O)c3c(c(O)c1C2=O)C[C@@](O)(C(=O)CO)C[C@@H]3O[C@H]1C[C@H](N)[C@H](O)[C@H](C)O1 [DXR, doxorubicin] | did not have a significant effect; also recorded: did not show a statistically significant reduction in the area of CNV | did not have a significant effect; also recorded: did not show a statistically significant reduction in the area of CNV | suppressed choroidal NV; also recorded: statistically significant reduction in the area of CNV | significant reduction in mean scotopic and photopic b-wave amplitudes | but not 0.1 or 0.01 μg, significantly reduced the area of retinal NV; also recorded: did not show a statistically significant reduction in the area of RNV | but not 0.1 or 0.01 μg, significantly reduced the area of retinal NV; also recorded: did not show a statistically significant reduction in the area of RNV | significantly reduced the area of retinal NV; also recorded: statistically significant reduction in the area of RNV |  |  |  | 
C[C@H]1O[C@@H](O[C@H]2[C@@H](O)C[C@H](O[C@H]3[C@@H](O)C[C@H](O[C@H]4CC[C@@]5(C)[C@H](CC[C@@H]6[C@@H]5C[C@@H](O)[C@]5(C)[C@@H](C7=CC(=O)OC7)CC[C@]65O)C4)O[C@@H]3C)O[C@@H]2C)C[C@H](O)[C@@H]1O [digoxin] |  |  |  |  |  |  |  | significant reduction in mean scotopic and photopic b-wave amplitudes | significant reduction in mean scotopic a-wave amplitude, mean scotopic b-wave amplitude, and mean photopic b-wave amplitude | reduction in outer nuclear layer thickness at 3 of 6 measurement locations | suppress HIF-1 transcriptional activity and ocular NV
